SMILES strings stand for the structures.

For this assay, the target named is T1, dopamine β-hydroxylase (DBH) (Bos taurus, UniProt P15101).
T1 sequence (P15101 1-610): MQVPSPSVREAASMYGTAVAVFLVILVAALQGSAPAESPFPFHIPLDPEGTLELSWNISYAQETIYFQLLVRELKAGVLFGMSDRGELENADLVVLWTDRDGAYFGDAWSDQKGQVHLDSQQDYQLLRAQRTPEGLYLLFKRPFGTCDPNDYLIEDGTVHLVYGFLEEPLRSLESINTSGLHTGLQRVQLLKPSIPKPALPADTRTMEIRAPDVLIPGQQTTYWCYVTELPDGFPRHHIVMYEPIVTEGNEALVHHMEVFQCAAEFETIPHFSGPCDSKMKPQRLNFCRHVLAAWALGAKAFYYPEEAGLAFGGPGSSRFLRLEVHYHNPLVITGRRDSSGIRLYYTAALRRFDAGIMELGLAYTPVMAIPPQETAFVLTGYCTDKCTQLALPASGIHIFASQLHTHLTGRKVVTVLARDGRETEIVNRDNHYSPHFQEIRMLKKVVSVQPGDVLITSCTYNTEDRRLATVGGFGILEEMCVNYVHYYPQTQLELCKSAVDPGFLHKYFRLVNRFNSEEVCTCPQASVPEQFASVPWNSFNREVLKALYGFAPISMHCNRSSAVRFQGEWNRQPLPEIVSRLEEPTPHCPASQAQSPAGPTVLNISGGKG
Nature of the assay: DBH inhibition, oxygen uptake followed with a polarographic electrode and oxygen monitor. In kind it is biochemical. Particulars: ascorbate electron donor, tyramine substrate; pH 4.5 to 5.5, preferably pH 5.0; 20° C. to 40° C., preferably 37° C.; read-out: DBH inhibitory activity, IC50 (concentration at which the reaction is inhibited by 50%). On the procedure: The DBH inhibitory properties of the compounds of this invention can readily be determined by standard and well-known procedures. For example, inhibition of DBH was determined by a procedure wherein enzymatic activity was ascertained in aqueous solution in the presence of molecular oxygen, an electron donor such as ascorbate, a substrate such as tyramine, an inhibitor, and the necessary cofactors for the enzyme at a pH of 4.5 to 5.5, preferably pH 5.0, and at a temperature of 20° C. to 40° C., preferably 37° C. The inhibitor was assayed over a range of concentrations. Each reaction was followed by measuring oxygen uptake as an indication of enzyme activity using a polarographic electrode and an oxygen monitor, following the method of S. May, et al., J. Biol. Chem., 256, 2258 (1981).
Consider `c1csc(Cn2ccnc2-c2ncc[nH]2)c1` [1-(2-Thienylmethyl)-2,2'-bi-1H-imidazole], for which the IC50 came to 65.5 µM.

For the compound `c1c[nH]c(-c2nccn2Cc2ccsc2)n1` [1-(3-thienylmethyl)-2,2'-bi-1H-imidazole], the IC50 came out at 29 µM.

In the case of `c1c[nH]c(-c2nc(Cc3ccsc3)c[nH]2)n1` [4-(3-thienylmethyl)-2,2'-bi-1H-imidazole], the IC50 is 8.8 µM.

These data come from patent US4839375A, “(Aryl or heteroaromatic methyl)-2,2'-bi-1H-imidazoles and their use as anti-hypertensive agents” (Merrell Dow Pharmaceuticals Inc., priority 1987, dated 1989).
